Source: patent US20220387377A1, “(+)-CIS TETRAHYDROCANNABINOL ((+)-CIS-THC) FOR USE AS A MEDICAMENT” (GW Research Limited, priority 2019, published 2022)
“Also recorded” adds a separate entry of the source.

Assays:
[1] = test system: tonic hind limb convulsions induced by MES; test: Mouse supramaximal electroshock seizure (MES) test; assay type: in vivo; parameters: key to Significance of inhibition of tonic hindlimb seizures vs vehicle (Fisher's test): * p < 0.05; *** p < 0.001; ns: Ns: non significantly different from vehicle control (Fisher's test)
Description: The efficacy of (+)-cis-THC was tested in a mouse model of seizure, the maximal electroshock (MES) test.
Mice were administered MES (30 mA, rectangular current: 0.6 ms pulse width, 0.2 s duration, 50 Hz) via corneal electrodes connected to a constant current shock generator (Ugo Basile: type 7801) to reliably produce tonic hind limb convulsions. The number of tonic convulsions was recorded.
Sixteen mice were studied per group. The test was performed blind.
The test substance, (+)-cis-THC, was evaluated at 4 doses (10, 50, 100 and 150 mg/kg), administered i.p. 60 minutes before MES, and compared with a vehicle control group (administered under the same experimental conditions).
Valproate (positive control) was administered at 250 mg/kg i.p. 30 minutes before MES, was used as a reference substance and was compared with a vehicle group (administered i.p. 60 minutes before MES).
Data was analysed by comparing treated groups with the appropriate vehicle control using 2-tailed Fisher's Exact Probability tests (p<0.05 considered significant).

[2] = depending on the assay; cited from earlier work
[3] = test system: withdrawal threshold on hot plate set at 52° C.; test: Mouse hotplate test (anti-nociception); assay type: in vivo
Description: The efficacy of (+)-cis-THC was tested in a mouse model of pain, the hotplate test.
Mice underwent a minimum habituation period of 7 days prior to study commencement. Naïve mice were acclimatised to the procedure room in their home cages, with food and water available ad libitum.
Animals were treated with either treatment vehicle, (+)-cis-THC at 1,15, 50,100, 125 and 150 mg/kg at 10 ml/kg i.p. or Morphine 10 mg/kg or Morphine vehicle (Saline) at 10 ml/kg i.p.
Animals were placed onto a hot plate set at 52° C. and time to withdrawal threshold (first response of lifting, licking front or hind paws or trying to escape) was taken at 1-hour post treatment, or at 0.5 hour after the positive control.
Animals were culled by a schedule 1 method, immediately after the measurement.
Data were analysed by comparing withdrawal thresholds back to Vehicle treated group

[4] = 250 mg/kg I.P., 30 mins before MES
[5] = 10 mg/kg I.P., 0.5 hour after treatment, hot plate 52° C.
[6] = 50 mg/kg I.P., 60 mins before MES
[7] = 100 mg/kg I.P., 60 mins before MES
[8] = 150 mg/kg I.P., 60 mins before MES

**Q.** With `CCCC(CCC)C(=O)O` [Valproate, reference compound] as the molecule, how does the “% change from vehicle in number of tonic clonic seizures after MES” value [1, 4] read?
**A.** The value was 100.0%.

**Q.** And the “Significance of inhibition of tonic hindlimb seizures vs vehicle (Fisher's test)” value [1, 4]?
**A.** Its value is “*** (*** p < 0.001)”.

**Q.** And the “% change from vehicle in number of tonic clonic seizures after MES” value ([1]; 250 mg/kg I.P., 30 mins before MES, listed as valproate)?
**A.** The value was 100%.

**Q.** Which “Potency relative to the (+)-trans-THC isomer” value [2] does the source give for `CCCCCc1cc(O)c2c(c1)OC(C)(C)[C@@H]1CCC(C)=C[C@@H]21` [(−)-trans-THC, (−)-trans-delta-9-tetrahydrocannabinol] here?
**A.** The value was 6-100 times.

**Q.** For `CN1CC[C@]23c4c5ccc(O)c4O[C@H]2[C@@H](O)C=C[C@H]3[C@H]1C5` [Morphine, reference compound], which “Significance of withdrawal threshold vs vehicle control” value [3, 5] is on record?
**A.** Its value is “*** (*** p < 0.001 significant when compared to the corresponding vehicle control (Fisher's test).)”.

**Q.** And the “Withdrawal threshold (sec) Mean +/− SEM” value [3, 5]?
**A.** The value was 17.48 ± 1.08 s.

**Q.** And the “Withdrawal threshold (sec) Mean +/− SEM” value ([3]; 10 mg/kg I.P., 0.5 hour after treatment, hot plate 52° C., listed as morphine)?
**A.** Its value is “significant increase in the withdrawal threshold”.

**Q.** What does the source list for `CCCCCc1cc(O)c2c(c1)OC(C)(C)[C@@H]1CCC(C)=C[C@H]21` (relative stereo) [(+)-cis-THC, (+)-cis-delta-9-tetrahydrocannabinol]?
**A.** Withdrawal threshold (sec) Mean +/− SEM ([3]; 1 mg/kg I.P., 1-hour post treatment, hot plate 52° C.): 10.23 ± 0.64 s; Withdrawal threshold (sec) Mean +/− SEM ([3]; 15 mg/kg I.P., 1-hour post treatment, hot plate 52° C.): 9.96 ± 0.73 s; Withdrawal threshold (sec) Mean +/− SEM ([3]; 50 mg/kg I.P., 1-hour post treatment, hot plate 52° C.): 9.80 ± 0.80 s; Withdrawal threshold (sec) Mean +/− SEM ([3]; 100 mg/kg I.P., 1-hour post treatment, hot plate 52° C.): 10.67 ± 0.77 s; Withdrawal threshold (sec) Mean +/− SEM ([3]; 125 mg/kg I.P., 1-hour post treatment, hot plate 52° C.): 11.18 ± 1.18 s; Withdrawal threshold (sec) Mean +/− SEM ([3]; 150 mg/kg I.P., 1-hour post treatment, hot plate 52° C.): 11.68 ± 0.52 s; Anti-nociceptive effect (withdrawal threshold compared to vehicle) ([3]; all doses tested, 1 to 150 mg/kg i.p.): none of the doses tested produced a significant difference; also recorded: no anti-nociceptive effect; Significance of inhibition of tonic hindlimb seizures vs vehicle (Fisher's test) ([1]; 10 mg/kg I.P., 60 mins before MES): ns; % change from vehicle in number of tonic clonic seizures after MES [1, 6]: 18.8%; Significance of inhibition of tonic hindlimb seizures vs vehicle (Fisher's test) [1, 6]: ns; % change from vehicle in number of tonic clonic seizures after MES [1, 7]: 25.0%; Significance of inhibition of tonic hindlimb seizures vs vehicle (Fisher's test) [1, 7]: ns; % change from vehicle in number of tonic clonic seizures after MES [1, 8]: 37.5%; Significance of inhibition of tonic hindlimb seizures vs vehicle (Fisher's test) [1, 8]: * (* p < 0.05); Anti-convulsant effect in the MES model (overall) ([1]; 10, 50, 100 and 150 mg/kg i.p. 60 minutes before MES): dose-related increase in the percentage change; also recorded: significant anti-convulsant effect
